Measurements: article PMC9537572, “Elucidation of the binding mechanism of astragaloside IV derivative with human serum albumin and its cardiotoxicity in zebrafish embryos” (Frontiers in Pharmacology, 2022)
“And” between values parts separate entries of the source, which are not always exact repeats. Equal entries are not always repeated. “Also recorded” adds a separate entry of the source. Where two headings read alike, the source gives them in different places.

How the values were obtained:
[1] = test system: zebrafish embryos; assay: Astemizole-induced cardiotoxicity in zebrafish embryos: heart rate and SV-BA spacing; type: in vivo; settings: 4 µM astemizole; for Heart rate (beats/min) (Mean±SE) / SV-BA spacing (µm) (Mean±SE): n = 10
Procedure: A total of 270 wild-type AB zebrafish at 3 dpf were randomly selected, and 30 zebrafish were plated in each well of a six-well plates. The concentrations of LS-102 were 27.8, 83.3 and 250 µg/ml, AGS IV was 250 µg/mL. A normal control group (fish culture water) and a 4 µM astemizole model control group were also established. Ten zebrafish were randomly selected from each group, and the heart rate and venous sinus-to-arterial bulb distance (SV-BA) of zebrafish were observed under a dissecting microscope after 2 h, 6 h and 24 h of LS-102 and AGS IV treatment. Images were collected by photographing, and the ameliorative effect of LS-102 and AGS IV on astemizole-induced cardiotoxicity in zebrafish was evaluated by the statistical significance of the heart rate and the SV-BA interval index.

[2] = test system: zebrafish embryos; assay: Maximum tolerated concentration of LS-102 in zebrafish; type: in vivo; settings: for Mortality: 3 dpf zebrafish, n=30; for Deaths: of 30 zebrafish
Procedure: Zebrafish embryos at 3 dpf were randomly selected and treated with LS-102 at concentrations of 1, 10, 100, 250 and 500 μg/ml in water, while the control group was left untreated. The mortality of zebrafish was recorded for each experimental group after 24 h of treatment.

[3] = molecular target: HSA (Homo sapiens, UniProt P02768); assay: Site marker competitive experiments (warfarin, ibuprofen) by equilibrium dialysis; type: in vitro ADME; settings: drug 0.476 mg/ml, n = 3, read-out: Plasma protein binding (converted)
Sequence of HSA (P02768 25-609): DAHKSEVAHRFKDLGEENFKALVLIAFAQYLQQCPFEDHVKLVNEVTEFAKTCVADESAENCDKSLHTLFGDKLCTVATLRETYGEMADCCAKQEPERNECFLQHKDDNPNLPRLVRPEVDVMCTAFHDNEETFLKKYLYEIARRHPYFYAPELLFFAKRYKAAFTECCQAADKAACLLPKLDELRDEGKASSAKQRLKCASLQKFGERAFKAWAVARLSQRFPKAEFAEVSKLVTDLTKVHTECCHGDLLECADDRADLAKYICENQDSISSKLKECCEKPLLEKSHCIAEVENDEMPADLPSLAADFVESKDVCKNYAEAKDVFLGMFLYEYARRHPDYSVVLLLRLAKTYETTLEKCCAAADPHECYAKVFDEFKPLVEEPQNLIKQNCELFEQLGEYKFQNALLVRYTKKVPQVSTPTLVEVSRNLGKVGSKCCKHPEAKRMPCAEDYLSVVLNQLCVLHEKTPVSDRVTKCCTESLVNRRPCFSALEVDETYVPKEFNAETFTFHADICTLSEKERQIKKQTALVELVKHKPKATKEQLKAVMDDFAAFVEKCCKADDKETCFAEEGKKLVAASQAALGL
Procedure: The site marker competitive experiments were performed using two classical site probes, warfarin and ibuprofen, which were selected as the markers of subdomain IIA (site I) and subdomain IIIA (site II) separately of HAS ([Ghuman et al., 2005]). The procedure was consistent with the method described in section 2.5, except that the concentrations of AGS IV and LS-102 were both fixed at 0.476 mg/ml, while the external dialysis solution was changed to contain the probe with a final concentration of 0, 0.06, 0.3, 1.2 mg/ml PBS solution. Briefly, the AGS IV/LS-102 HSA mixture (0.5 ml drug and 0.5 ml HSA) was separately incubated with three different concentrations of probe to evaluate the effects of warfarin or ibuprofen on drug-protein binding influence. Three replicates of each concentration were prepared. After equilibrium dialysis, the internal and external dialysates were analyzed by UHPLC-MS/MS.

[4] = test system: zebrafish; assay: Arachidonic acid-induced thrombosis in zebrafish; type: in vivo; settings: for Staining intensity of cardiac red blood cells (pixels) (mean ± se): 3 h pretreatment, arachidonic acid 1.5 h, n = 10; for Antithrombotic effect (%): vs. model group, arachidonic acid-induced thrombosis
Procedure: A total of 270 melanin allele mutant translucent albino strain zebrafish at 3 dpf were randomly selected, with 30 zebrafish per well in six-well plates. The concentrations of LS-102 were 6.25, 12.5, 25, 50, and 100 µg/ml, while that of AGS IV was 100 µg/ml, and the positive control drug aspirin was 25 µg/ml. After treatment with LS-102 and AGS IV for 3 h, arachidonic acid aqueous solution was administered for 1.5 h to induce a thrombosis model in zebrafish in all experimental groups except the normal group. After staining with o-anisidine, zebrafish were randomly selected from each experimental group and observed under a dissecting microscope and photographed. Data were collected to qualitatively evaluate thrombosis in zebrafish, and the intensity of cardiac erythrocyte staining (length of venous thrombus vs. number of cardiac erythrocytes) in zebrafish was analyzed and counted to establish, the preventive effect of LS-102 and AGS IV with aspirin on thrombosis in zebrafish. The formula was calculated as follows:
Thromboprophylactic effect (%) = S (drug administration group)−S (model group)/S (nomal control group)−S (model group)×100%

[5] = test system: mice; settings: even at high treatment doses, ref Qing et al., 2019, Sun et al.; cited from earlier work
[6] = test system: zebrafish embryos; assay: Astemizole-induced toxicity in zebrafish heart development; type: in vivo; settings: for Mortality: cotreated with 4 µM astemizole 48 h from 2 hpf
Procedure: A total of 270 wild-type AB zebrafish at 2 h post-fertilization (2 hpf) were randomly selected, and 30 zebrafish were plated in each well of a six-well plates. The concentrations of LS-102 were 27.8, 83.3 and 250 µg/ml, while that of AGS IV was 250 µg/mL. A normal control group (fish culture water) and a 4 µM astemizole model control group were also established. After LS-102 and AGS IV were cotreated with astemizole for 48 h, zebrafish heart development was observed and photographed under a microscope to evaluate the ameliorative effect of LS-102 and AGS IV on astemizole-induced toxicity in zebrafish heart development.

[7] = 83.3 µg/mL, 4 µM astemizole, 48 h, n=30

Structure (SMILES): CC(C)(O)C1CCC(C)(C2C(O)CC3(C)C4CC(OC5OC(C(=O)O)C(O)C(O)C5O)C5C(C)(C)C(OC6OCC(O)C(O)C6O)CCC56CC46CCC23C)O1 (stereo not shown) [LS-102, astragalosidic acid]
- Heart rate (beats/min) (Mean±SE) ([1]; 27.8 µg/ml, 2 h): 156 ± 1 beats/min
- SV-BA spacing (µm) (Mean±SE) ([1]; 27.8 µg/ml, 2 h): 179 ± 7 µm
- Heart rate (beats/min) (Mean±SE) ([1]; 27.8 µg/ml, 6 h): 158 ± 1 beats/min
- SV-BA spacing (µm) (Mean±SE) ([1]; 27.8 µg/ml, 6 h): 204 ± 6 µm
- Heart rate (beats/min) (Mean±SE) ([1]; 27.8 µg/ml, 24 h): 45 ± 23 beats/min
- SV-BA spacing (µm) (Mean±SE) ([1]; 27.8 µg/ml, 24 h): 250 ± 6 µm
- Heart rate (beats/min) (Mean±SE) ([1]; 83.3 µg/ml, 2 h): 157 ± 2 beats/min
- SV-BA spacing (µm) (Mean±SE) ([1]; 83.3 µg/ml, 2 h): 157 ± 3 µm
- Heart rate (beats/min) (Mean±SE) ([1]; 83.3 µg/ml, 6 h): 153 ± 1 beats/min
- SV-BA spacing (µm) (Mean±SE) ([1]; 83.3 µg/ml, 6 h): 168 ± 4 µm
- Heart rate (beats/min) (Mean±SE) ([1]; 83.3 µg/ml, 24 h): 128 ± 21 beats/min
- SV-BA spacing (µm) (Mean±SE) ([1]; 83.3 µg/ml, 24 h): 228 ± 7 µm
- Heart rate (beats/min) (Mean±SE) ([1]; 250 µg/ml, 2 h): 160 ± 1 beats/min
- SV-BA spacing (µm) (Mean±SE) ([1]; 250 µg/ml, 2 h): 151 ± 3 µm
- Heart rate (beats/min) (Mean±SE) ([1]; 250 µg/ml, 6 h): 167 ± 1 beats/min
- SV-BA spacing (µm) (Mean±SE) ([1]; 250 µg/ml, 6 h): 158 ± 6 µm
- Heart rate (beats/min) (Mean±SE) ([1]; 250 µg/ml, 24 h): 162 ± 7 beats/min
- SV-BA spacing (µm) (Mean±SE) ([1]; 250 µg/ml, 24 h): 174 ± 9 µm
- Effect on astemizole-induced heart rate slowing and SV-BA spacing increase (in words) ([1]; 2 h and 6 h, 27.8, 83.3 and 250 µg/ml): improved the slowed heart rate and increased the SV-BA spacing
- Effect on astemizole-induced heart rate slowing and SV-BA spacing increase (in words) ([1]; 24 h): improved the slowed heart rate at 250 µg/ml and the increase in SV-BA spacing at 83.3 and 250 µg/ml
- Mortality ([2]; 1 µg/mL, 24 h): 0%
- Deaths ([2]; 1 µg/mL, 24 h): 0 tails
- Mortality ([2]; 10 µg/mL, 24 h): 0%
- Deaths ([2]; 10 µg/mL, 24 h): 0 tails
- Mortality ([2]; 100 µg/mL, 24 h): 0%
- Deaths ([2]; 100 µg/mL, 24 h): 0 tails
- Mortality ([2]; 250 µg/mL, 24 h): 13.3%
- Deaths ([2]; 250 µg/mL, 24 h): 4 tails
- Mortality ([2]; 500 µg/mL, 24 h): 100%
- Deaths ([2]; 500 µg/mL, 24 h): 30 tails
- Mortality (in words) ([2]; concentrations ranging from 1 to 100 µg/ml, 24 h): no mortality
- Maximum-tolerated concentration (MTC) ([2]; zebrafish 3 dpf, 24 h treatment): 100 µg/mL
- fraction unbound at 72 h, 0.476 mg/ml ([3]; with ibuprofen 0.06 mg/ml): 0.368
- fraction unbound at 72 h, 0.476 mg/ml ([3]; with ibuprofen 0.3 mg/ml): 0.248
- fraction unbound at 72 h, 0.476 mg/ml ([3]; with ibuprofen 1.2 mg/ml): 0.28
- fraction unbound at 72 h, 0.476 mg/ml ([3]; with warfarin 0.06 mg/ml): 0.467
- fraction unbound at 72 h, 0.476 mg/ml ([3]; with warfarin 0.3 mg/ml): 0.411
- fraction unbound at 72 h, 0.476 mg/ml ([3]; with warfarin 1.2 mg/ml): 0.453
- fraction unbound at 72 h, 0.476 mg/ml ([3]; without site markers): 0.331
- Staining intensity of cardiac red blood cells (pixels) (mean ± se) ([4]; 6.25 µg/ml): 1280 pixels and 1280 ± 119 pixels
- Antithrombotic effect (%) ([4]; 6.25 µg/ml): −13%
- Staining intensity of cardiac red blood cells (pixels) (mean ± se) ([4]; 12.5 µg/ml): 1521 pixels and 1521 ± 72 pixels
- Antithrombotic effect (%) ([4]; 12.5 µg/ml): 14%
- Staining intensity of cardiac red blood cells (pixels) (mean ± se) ([4]; 25 µg/ml): 1597 pixels and 1597 ± 65 pixels
- Antithrombotic effect (%) ([4]; 25 µg/ml): 22%
- Staining intensity of cardiac red blood cells (pixels) (mean ± se) ([4]; 50 µg/ml): 1796 pixels and 1796 ± 54 pixels
- Antithrombotic effect (%) ([4]; 50 µg/ml): 44%
- Staining intensity of cardiac red blood cells (pixels) (mean ± se) ([4]; 100 µg/ml): 1950 pixels and 1950 ± 33 pixels
- Antithrombotic effect (%) ([4]; 100 µg/ml): 61%
- Abnormalities or death in mice (in words) [5]: no abnormalities or death
- Mortality ([6]; 27.8 µg/mL, n=30): 0%
- Phenotype: absence of blood flow (share of zebrafish) [6, 7]: 26.7%
- Phenotype: pericardial oedema, venous sinus stasis (share of zebrafish) [6, 7]: 83.3%
- Phenotype: slowed blood flow (share of zebrafish) [6, 7]: 56.7%
- Mortality ([6]; 83.3 µg/mL, n=30): 0%
- Phenotype (in words) ([6]; 250 µg/mL, 4 µM astemizole, 48 h, n=30): no significant toxicity; also recorded: No abnormalities seen
- Mortality ([6]; 250 µg/mL, n=30): 30%
- Effect on the developmental toxicity of zebrafish hearts induced by astemizole (in words) ([6]; 83.3 and 250 µg/ml, 4 µM astemizole, 48 h): ameliorating effect
